Measurements reported in patent publication US20150315202A1, “CHLORIN DERIVATIVE USEFUL IN PHOTODYNAMIC THERAPY AND DIAGNOSIS” (RMW CHO GROUP LIMITED, priority 2012, published 2015).

How the values were obtained:
[1] = test system: stage IVB Hodgkin's lymphoma with metastases; experiment: In vivo studies Example 4: patient, oral chlorin e4 sodium plus laser and LED light; parameters: species or system human
Procedure: (§1) A patient with stage IVB Hodgkin's lymphoma with metastases in the liver, lymphatic system, spleen, lung and bones, was treated successfully. The treatment consisted of three courses. For each course, five doses of 62.5-187.5 mg chlorin e4 sodium were administered orally over the course of eight days. 24-48 hours after each oral dose of chlorin e4 sodium, the patient was treated with laser and LED light having a wavelength of 660 nm and 760 nm.
(§2) Subsequently the patient was treated with a further two courses. Again, for each course, five doses of 62.5-187.5 mg chlorin e4 sodium were administered orally over the course of eight days. 24-48 hours after each oral dose of chlorin e4 sodium, the patient was treated with laser and LED light having a wavelength of 660 nm and 760 nm.

[2] = test system: naso pharyngeal carcinoma with extension to a lymph node in the left neck; experiment: In vivo studies Example 2: patient, oral chlorin e4 sodium plus laser and LED light; parameters: species or system human
Procedure: as §1, with “naso pharyngeal carcinoma” for “stage IVB Hodgkin's lymphoma”, “extension to a lymph node” for “metastases”, “left neck,” for “liver, lymphatic system, spleen, lung and bones,”
as §2, with “further course.” for “further two courses.”, “for the” for “for each”

For `C=Cc1c(C)c2cc3nc(c(C)c4[nH]c(cc5nc(cc1[nH]2)C(C)=C5CC)c(C)c4C(=O)O)[C@@H](CCC(=O)O)[C@@H]3C` [chlorin e4 sodium], the “Response (PET/CT)” value ([1]; after a further two courses) was “good treatment response”, the “Tumours in areas treated with light (CT)” value ([1]; after three courses) was “some tumours disappeared altogether and some tumours reduced in size” and the Survival time ([1]; life expectancy before treatment only two weeks) was “two years and two months”. The “Response (ultrasound images and biopsies)” value ([2]; after the final (fourth) treatment course) was “complete response”, the “Biopsy of the treated lymph node of the neck” value ([2]; immediately following three courses, confirmed ten months after treatment) was “no cancer cells were detected” and the “Comparison of CT scans” value ([2]; one month before and ten months after treatment) was “no spread of tumours and that the size of the tumours was reduced”. The Patient status ([2]; two years and six months after starting, five months after completion of treatment) was “alive and well”.
